Test results taken from ChEMBL document CHEMBL1201862, “PubChem BioAssay data set” (2004).
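1) Cells in 96-well plates. 2) Compound, 48 h, 5 concentrations. 3) Linear interpolation between surrounding doses. 4) Unreached endpoint = highest concentration. GI50 = concentration required for 50% inhibition of growth.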 Activity calls are given as the source filed them. No stated cut-off is given here; in the data, active = GI50 up to about 1.1 µM and inactive = higher.

Legend:
Assay in all cases: inhibition of tumour cell growth, NCI panel, 48 h
UACC-62 = system: UACC-62
LOX IMVI = system: LOX IMVI
SK-OV-3 = system: SK-OV-3
HOP-92 = system: HOP-92
OVCAR-3 = system: OVCAR-3
IGROV-1 = system: IGROV-1
SK-MEL-5 = system: SK-MEL-5
HL-60 = system: HL-60
KM12 = system: KM12
CCRF-CEM = system: CCRF-CEM
SNB-75 = system: SNB-75
SNB-19 = system: SNB-19
SF-268 = system: SF-268
OVCAR-5 = system: OVCAR-5
SR = system: SR

Measured: GI50

COC12OCCN(C)C1=CC(=O)C1N=NCC12 (centres undefined)
inactive: UACC-62 > 100 µM | LOX IMVI > 100 µM | SK-OV-3 > 100 µM | HOP-92 > 100 µM | OVCAR-3 > 100 µM | IGROV-1 > 100 µM | SK-MEL-5 > 100 µM | HL-60 > 100 µM | KM12 > 100 µM | CCRF-CEM > 100 µM | SNB-75 > 100 µM

Cc1cc(NS(=O)(=O)c2ccc(Nc3c4ccccc4nc4c(C(=O)Nc5ccc(S(=O)(=O)N=C(N)N)cc5)cccc34)cc2)no1
inactive: UACC-62 > 100 µM | SNB-19 > 100 µM | LOX IMVI > 100 µM | SK-OV-3 > 100 µM | SF-268 > 100 µM | OVCAR-5 > 100 µM | HOP-92 > 100 µM | OVCAR-3 > 100 µM | IGROV-1 > 100 µM | SK-MEL-5 > 100 µM | KM12 > 100 µM | CCRF-CEM > 100 µM | SNB-75 > 100 µM

NC(=O)C(=Cc1ccc(C(O)P(=O)(O)O)cc1)C(N)=O (centres undefined)
inactive: UACC-62 > 100 µM | SNB-19 > 100 µM | LOX IMVI > 100 µM | SK-OV-3 > 100 µM | OVCAR-5 > 100 µM | HOP-92 > 100 µM | OVCAR-3 > 100 µM | IGROV-1 > 100 µM | SK-MEL-5 > 100 µM | KM12 > 100 µM | SNB-75 > 100 µM

CCC1(Br)C(=O)NC(=O)N(C2CC(O)C(CO)O2)C1N=[N+]=[N-] (centres undefined)
inactive: UACC-62 > 100 µM | SNB-19 > 100 µM | LOX IMVI > 100 µM | SK-OV-3 > 100 µM | SF-268 > 100 µM | OVCAR-5 > 100 µM | HOP-92 > 100 µM | OVCAR-3 > 100 µM | IGROV-1 > 100 µM | SK-MEL-5 > 100 µM | HL-60 > 100 µM | CCRF-CEM 44 µM | SNB-75 > 100 µM

COC1CC(O[C@H]2CC[C@@]3(C)C(=CCC4(O)C3CCC35C(=O)OC6(C)O[C@@]43CCC65)C2)OC(C)C1O (some centres undefined)
inactive: SR > 100 µM | UACC-62 > 100 µM | SNB-19 > 100 µM | SK-OV-3 > 100 µM | SF-268 > 100 µM | OVCAR-5 > 100 µM | IGROV-1 > 100 µM | SK-MEL-5 > 100 µM | HL-60 > 100 µM | KM12 > 100 µM | CCRF-CEM > 100 µM | SNB-75 > 100 µM

CC(C)(C)CC(C)(C)c1cc2c(O)c(c1)Cc1cc(C(C)(C)CC(C)(C)C)cc(c1O)Cc1cc(C(C)(C)CC(C)(C)C)cc(c1O)Cc1cc(C(C)(C)CC(C)(C)C)cc(c1O)Cc1cc(C(C)(C)CC(C)(C)C)cc(c1O)C2
inactive: UACC-62 > 100 µM | SNB-19 > 100 µM | SF-268 > 100 µM | OVCAR-5 > 100 µM | HOP-92 > 100 µM | OVCAR-3 > 100 µM | IGROV-1 > 100 µM | SK-MEL-5 > 100 µM | HL-60 > 100 µM | KM12 > 100 µM | CCRF-CEM > 100 µM | SNB-75 > 100 µM

CC[P+]1(CC)CCCC1
inactive: UACC-62 > 100 µM | SNB-19 > 100 µM | LOX IMVI > 100 µM | SK-OV-3 > 100 µM | SF-268 > 100 µM | OVCAR-5 > 100 µM | OVCAR-3 > 100 µM | IGROV-1 > 100 µM | SK-MEL-5 > 100 µM | KM12 > 100 µM | CCRF-CEM > 100 µM | SNB-75 > 100 µM

C[C@@H](C1CCC2C3C(=CC(=O)[C@@]21C)[C@H](C)[C@]1(CCC(=O)O1)C1OC31)[C@H]1C[C@]2(C)O[C@@](C)(O1)OC2(C)C (some centres undefined)
inactive: UACC-62 > 100 µM | SNB-19 > 100 µM | LOX IMVI > 100 µM | SK-OV-3 > 100 µM | SF-268 > 100 µM | HOP-92 > 100 µM | IGROV-1 > 100 µM | SK-MEL-5 > 100 µM | HL-60 > 100 µM | CCRF-CEM > 100 µM

CC(C)c1ccc(/C=C/c2cc(C(=O)NNC(=O)NC3CCCCC3)nc(S)n2)cc1
inactive: UACC-62 > 100 µM | SNB-19 > 100 µM | LOX IMVI > 100 µM | SK-OV-3 > 100 µM | SF-268 > 100 µM | OVCAR-5 > 100 µM | HOP-92 > 100 µM | OVCAR-3 > 100 µM | IGROV-1 > 100 µM | SK-MEL-5 > 100 µM | KM12 > 100 µM | SNB-75 > 100 µM

CCN(CC)c1ccc(/N=N/c2ccc(-c3nc4cccnc4o3)cc2)cc1
inactive: UACC-62 > 100 µM | SNB-19 > 100 µM | LOX IMVI > 100 µM | SF-268 > 100 µM | OVCAR-5 > 100 µM | HOP-92 > 100 µM | OVCAR-3 > 100 µM | IGROV-1 > 100 µM | SK-MEL-5 > 100 µM | HL-60 > 100 µM | KM12 > 100 µM | CCRF-CEM > 100 µM | SNB-75 > 100 µM

CN(C)C=C1C(Cl)=C(C=O)CC(C=O)=C1Cl
inactive: UACC-62 15.1 µM | SNB-19 14.3 µM | LOX IMVI 2.19 µM | SK-OV-3 29.4 µM | SF-268 8.17 µM | OVCAR-5 15.9 µM | HOP-92 4.2 µM | OVCAR-3 13.5 µM | IGROV-1 16.1 µM | SK-MEL-5 10.4 µM | HL-60 1.77 µM | KM12 6.46 µM | CCRF-CEM 2.5 µM | SNB-75 15.4 µM

COc1nc2c(OC)cccc2c(OC)c1C=O
inactive: UACC-62 > 100 µM | SNB-19 > 100 µM | LOX IMVI > 100 µM | SK-OV-3 > 100 µM | OVCAR-3 > 100 µM | IGROV-1 > 100 µM | SK-MEL-5 > 100 µM | HL-60 > 100 µM | KM12 75.5 µM | CCRF-CEM > 100 µM | SNB-75 30.8 µM

OCC(O)C(O)c1nn(-c2ccccc2)c2nc3cc(Cl)c(Cl)cc3nc12 (centres undefined)
inactive: UACC-62 29.4 µM | SNB-19 48.2 µM | LOX IMVI 19.5 µM | SK-OV-3 30.6 µM | SF-268 21.4 µM | OVCAR-5 14.8 µM | HOP-92 35.7 µM | OVCAR-3 27.4 µM | IGROV-1 24.6 µM | SK-MEL-5 26.4 µM | HL-60 18.2 µM | KM12 20.8 µM | CCRF-CEM 35.2 µM | SNB-75 21.8 µM

CN(C)C(=S)/N=c1\ss/c(=N\C(=S)N(C)C)n1-c1cccc(Cl)c1
inactive: SR > 100 µM | UACC-62 > 100 µM | SNB-19 > 100 µM | LOX IMVI > 100 µM | SK-OV-3 > 10 µM | SF-268 > 100 µM | OVCAR-5 > 100 µM | OVCAR-3 > 100 µM | IGROV-1 > 100 µM | SK-MEL-5 > 100 µM | HL-60 > 100 µM | KM12 > 100 µM | CCRF-CEM > 100 µM | SNB-75 36.6 µM

O=C1Nc2cccc3ncn(c23)C2=C1CCCC2
inactive: SR > 100 µM | UACC-62 > 100 µM | SNB-19 > 100 µM | LOX IMVI > 100 µM | SK-OV-3 96.2 µM | SF-268 > 100 µM | OVCAR-5 > 100 µM | IGROV-1 > 100 µM | SK-MEL-5 > 100 µM | HL-60 > 100 µM | KM12 > 100 µM | CCRF-CEM > 100 µM
